The numbers were not newly measured in patent US6140051A, “Fluorescent dibenzazole derivatives and methods related thereto” (priority 1998, dated 2000), which cites them from elsewhere.

The conditions of this data set: aqueous; cited from earlier work.

Take `OC[C@H]1O[C@@H](Oc2ccc3nc(-c4nc5ccccc5s4)sc3c2)[C@H](O)[C@@H](O)[C@H]1O` [galactoside of BBT]: the solubility entry is “less than 1 mM”.
